The source of these data is patent publication US10017713B2, “Fluorinated surfactant containing compositions” (3M INNOVATIVE PROPERTIES COMPANY, priority 2014, dated 2018).

Series [1] can be described thus: Surfactant solubility in hydrofluoroether (HFE) solvents by visual clarity. It is filed as physicochemical. Here is the method: A series of C4F9SO2N-based fluorochemical surfactants were examined to determine their solubility in various hydrofluoro ether (HFE) solvents, including four segregated HFEs (Novec 7100, 7200, 7300, and 7500 available from 3M Company, St Paul, Minn.), one non-segregated HFE (PF-7600 available from 3M Company), and one HFE-Alcohol blend (Novec 71IPA available from 3M Company). Solubility was determined by preparing mixtures of each surfactant in the solvent at various concentrations and determining solubility at each concentration by visual inspection based on the clarity of the solutions after thorough mixing at room temperature. Surfactants that were not completely soluble at a given concentration produced hazy mixtures, whereas surfactants that were completely soluble at a given concentration produced clear homogeneous solutions with no haze. The highest concentration of each surfactant to give a clear, homogeneous solution in each HFE solvent (expressed as wt % surfactant dissolved in HFE solvent) was taken as the maximum solubility.

A short description of series [2]: Cleaning performance: % particle removal from heavily soiled CMOS sensors. Here is the method: A study was conducted using Novec 7100 and Novec 71IPA base solvents with and without the soluble surfactants identified above to determine the impact of dissolved surfactant on cleaning performance of the fluids. In some cases a single surfactant was employed. In other cases a mixture of two surfactants was employed. In all cases the total concentration of fluorochemical surfactant employed was 0.20 wt % (or 2000 ppm) in the base fluid. Cleaning results were compared to pure Novec fluid controls containing no surfactant. The cleaning trials were performed on heavily soiled CMOS sensors containing a high pixel density. These sensors are known to be extremely difficult to clean such that they are essentially free of (particle contaminants.
A precision solvent cleaning system (SK-04Y-6008 customized cleaning system from YMPT, Thailand) was used to clean the CMOS sensors using the process outlined below.
The cleaning performance of each cleaning fluid composition was judged based on the percentage of particles originally present on the CMOS surface that were removed by the cleaning fluid after completion of the cleaning process. The percentage of particles removed was determined by optical microscopy inspection of the CMOS sensors before and after cleaning.
The original (heavily soiled) CMOS sensor was first inspected using an optical microscope and a series of Pre-Clean images were recorded. The CMOS sensor was then cleaned in the precision cleaning system using the process described above and the proscribed solvent/surfactant combination. After cleaning, the CMOS sensor was inspected again by optical microscopy and a Post-Clean image recorded to determine particle counts remaining on the sensor. In this way, the % removal of particles after cleaning of CMOS sensors was determined.

[3] abbreviates: Novec 71IPA, room temperature (23° C.).
[4] abbreviates: Novec 7100, room temperature (23° C.).
Setting [5] is: Novec 7200, room temperature (23° C.).
[6] abbreviates: Novec 7300, room temperature (23° C.).
Where [7] appears, read: Novec 7500, room temperature (23° C.).
The mark [8] stands for this setting: PF-7600, room temperature (23° C.).
Setting [9] is: Novec 71IPA, total surfactant 0.20 wt %.

Broadly, the melting point is the temperature of the solid-liquid transition. In turn, `O=S(=O)(N(CCO)CCOCCO)C(F)(F)C(F)(F)C(F)(F)C(F)(F)F` [FBSE(EE) (V), C4F9SO2N(CH2CH2OCH2CH2OH) (CH2CH2OH)] displayed a melting point of 45.1 °C. Further, in series [1] (setting [3]), the “Max. Solubility” value is listed as above 10 wt %. In series [1] (setting [4]), the “Max. Solubility” value is reported as 1.5 wt %. Also, in series [1] (setting [5]), the “Max. Solubility” value came to 0.8 wt %. Also, in series [1] (setting [6]), the “Max. Solubility” value was found to be 0.9 wt %. Besides, the “Max. Solubility” value in series [1] (setting [7]) is 0.2 wt %. Also, the “Max. Solubility” value in series [1] (setting [8]) is above 10 wt %. In series [2] (setting [9]), the “% Removal (Percent Particle Removal)” value was 90-100%. Further, in series [2] (Novec 7100, surfactant 0.2 %), the “% Removal (Percent Particle Removal)” value was 90-100%.
Take `O=S(=O)(N(CCOCCO)CCOCCO)C(F)(F)C(F)(F)C(F)(F)C(F)(F)F` [FBS(EE)2 (IV), C4F9SO2N(CH2CH2OCH2CH2OH)2]: the “Max. Solubility” value in series [1] (setting [3]) is above 10 wt %; in series [1] (setting [4]), above 10 wt %; in series [1] (setting [5]), 0.2-0.5 wt %; in series [1] (setting [6]) it was 0.2-0.3 wt %; in series [1] (setting [7]), 0.2 wt %; in series [1] (setting [8]), 8-9 wt %. Further, the “% Removal (Percent Particle Removal)” value in series [2] (setting [9]) is recorded as 50-80%; in series [2] (Novec 7100, surfactant 0.2 %) it was 50-80%.
For the compound `CC(O)CN(CCO)S(=O)(=O)C(F)(F)C(F)(F)C(F)(F)C(F)(F)F` (stereo not drawn) [FBSEP (VIII), C4F9SO2N(CH2CH2OH)CH2CH(CH3)OH], the “Max. Solubility” value in series [1] (setting [3]) is reported as above 10 wt %; in series [1] (setting [4]), 4.0 wt %; in series [1] (setting [6]), 1.4 wt %; in series [1] (setting [8]) it was above 10 wt %. Further, the “solubility in HFE solvents” value in series [1] (room temperature) is on record as “improved solubility”.
For the compound `O=S(=O)(NCCOCCO)C(F)(F)C(F)(F)C(F)(F)C(F)(F)F` [H-FBS(EE) (III), C4F9SO2N(H)CH2CH2OCH2CH2OH], the melting point stood at 35.7 °C. The “Max. Solubility” value in series [1] (setting [3]) is reported as above 10 wt %. Further, the “Max. Solubility” value in series [1] (setting [4]) is above 10 wt %. The “Max. Solubility” value in series [1] (setting [5]) is recorded as above 10 wt %. In addition, the “Max. Solubility” value in series [1] (setting [6]) is given as above 10 wt %. For the same compound, the “Max. Solubility” value in series [1] (setting [7]) is listed as above 10 wt %. In addition, the “Max. Solubility” value in series [1] (setting [8]) is above 10 wt %. In series [2] (setting [9]), the “% Removal (Percent Particle Removal)” value was 50-80%. Moreover, the “% Removal (Percent Particle Removal)” value in series [2] (Novec 7100, surfactant 0.2 %) is given as 50-80%.
Turning to `O=S(=O)(NCCO)C(F)(F)C(F)(F)C(F)(F)C(F)(F)F` [H-FBSE (X), C4F9SO2NH(CH2CH2OH)], the “Max. Solubility” value in series [1] (setting [3]) is recorded as above 10 wt %; in series [1] (setting [4]), 0.21 wt %; in series [1] (setting [5]), 0.16 wt %; in series [1] (setting [6]), 0.06 wt %; in series [1] (setting [8]), 1.5 wt %. Besides, in series [2] (setting [9]), the “% Removal (Percent Particle Removal)” value is reported as 50-80%.
For “C4F9SO2N(CH3)(CH2CH2O)7CH3 [FC-4171 (XI), reference compound]”, the “Max. Solubility” value is reported as above 10 wt % in series [1] (setting [3]); above 10 wt % in series [1] (setting [4]); above 10 wt % in series [1] (setting [5]); 0.5 wt % in series [1] (setting [6]); 0.1 wt % in series [1] (setting [7]); above 10 wt % in series [1] (setting [8]). In addition, the “% Removal (Percent Particle Removal)” value is recorded as 50-80% in series [2] (setting [9]) and 50-80% in series [2] (Novec 7100, surfactant 0.2 %).
For `O=S(=O)(N(CCO)CCO)C(F)(F)C(F)(F)C(F)(F)C(F)(F)F` [FBSEE (IX), C4F9SO2N(CH2CH2OH)2], the “Max. Solubility” value in series [1] (setting [3]) turned out to be 8.1 wt %; in series [1] (setting [4]), 0.06 wt %; in series [1] (setting [5]), 0.04 wt %; in series [1] (setting [6]) it was 0.03 wt %; in series [1] (setting [8]), 0.6 wt %. The “% Removal (Percent Particle Removal)” value in series [2] (setting [9]) is reported as 90-100%.
